From US20240116864A1, “XANTHOPHYLL DERIVATIVES” (priority 2020, published 2024)

System: Caco-2 cell homogenates
Experiment: Conversion of prodrug to parent compound (astaxanthin) in frozen/thawed unviable Caco-2 cell homogenates
Assay type: in vitro ADME
From the text: Formation of astaxanthin in resuspended Caco-2 cells previously frozen.
Human carboxylesterase 1 (hCE-1) and carboxylesterase 2 (hCE-2) are serine esterases involved in both drug metabolism and activation of prodrugs. The expression pattern of human carboxylesterase in Caco-2 (human colon adenocarcinoma) cell line is similar to human […] that expresses a much higher level of hCE-1 and lower level of hCE-2 (Drug Metab. Pharmacokinet. 21 (3): 173-185 (2006)).
Therefore, the formation of astaxanthin from compounds CCXX, CCXXI, CCXXII and CCXXVI was tested with Caco-2 cells that were frozen at −80° C. and thawed before testing. The freezing/thawing process without cryopreservants compromised the integrity of the membrane, as confirmed by positive staining of the dead cells with a dye exclusion method using trypan blue. Dead cells are not selective to compounds passing through the compromised membrane, eliminating the transport and permeation barriers to access the cell content and metabolic enzymes including the carboxylesterases.
The Caco-2 (colorectal adenocarcinoma) cellular line was obtained from Cordoba Cell Bank (CCB, CIQUIBIC, Cordoba, Argentina), #ATCC Passage: 18. #CCB Passage: 4. Culture conditions: Low Glucose DMEM (1 g/L)+Penicillin-Streptomycin+20% Fetal Bovine Serum (SFB). Cells were cultured in a 37° C. incubator with 5% CO2 on cell culture dishes. Once they reached confluence, cells were washed twice with Phosphate-buffered saline (PBS) and lifted after trypsinization. For trypsinization, 1 mL of trypsin was added, incubated for a few minutes in the 37° C. incubator, neutralized with supplemented culture medium and cells were collected in 15 mL tubes (Falcon). The tubes were centrifuged for 5 min at 1000 rpm, the supernatant was removed, and the cells were resuspended in supplemented medium. To determine the amount of viable (living) cells, a ½ dilution with trypan blue dye was made and counted in an automatic cell counter (more than 90% of live cells were measured). Finally, the tubes were centrifuged again, and cells were resuspended at a concentration of 5 million/mL in non-supplemented DMEM and placed in a −80° C. freezer. To determine the amount of non-viable cells after freezing and thawing, a ½ dilution with trypan blue dye was made and they were counted in an automatic cell counter and the dead cells were above 95%. Pools of unviable (“leaking”) cell homogenates were subsequently used for incubations with the compounds of interest.
A 1 mL frozen aliquot containing 5 million/mL of unviable Caco-2 cells was thawed and warmed at 37° C. A 0.010 mL aliquot of a stock solution of the compound in DMSO (2.5 mM) was added to the cells and incubated at 37 ° C. At selected timepoints, a 0.2 mL aliquot was removed and mixed with 0.5 mL of methanol containing retinyl acetate (0.011 mM) as an internal standard. The methanolic mixture was vigorously vortexed and 1 mL of chloroform was added to extract unreacted compound, astaxanthin and related compounds as well as the internal standard. After vigorous vortexing, the mixture was centrifuged at 8000 rpm for 10 min at 4° C. The chloroform phase was removed and dried under nitrogen flow. 1 mL of the sample solvent (THF/acetonitrile with 1% Formic acid) was added to the residue, mixed vigorously and filtered through a PVDF 0.22 um filter in a HPLC vial. The filtrate was stored in the autosampler at 5° C. and injected in the HPLC to measure the amount of internal standard, unreacted compound, free astaxanthin and its related compounds. The HPLC equipment was a UHPLC Nexera XR (Shimadzu)/PDA SPD-M3OA (Shimadzu) with a Shimpack GIST C18 100×2.1 mm, 2 um column at 40° C. Two HPLC methods were used, gradient and isocratic depending on the prodrug. Gradient method: flow 0.2 mL/m, mobile phase A (MPA): water with formic acid 0.1%, mobile phase B (MPB): acetonitrile with formic acid 0.1%, gradient: time 0 m 60/40, 2.5 m 10/90, 10.4 m 10/90. UV(PDA) detector 380 and 325 nm (for retinyl acetate). […]

[1] = unviable Caco-2 cells 5 million/mL, 37 °C, HPLC

## CC1=C(/C=C/C(C)=C/C=C/C(C)=C/C=C/C=C(C)/C=C/C=C(C)/C=C/C2=C(C)C(=O)[C@@H](OC(=O)[C@@H](C)NC(=O)c3cccnc3)CC2(C)C)C(C)(C)C[C@H](OC(=O)[C@H](C)NC(=O)c2cccnc2)C1=O [CCXXII]
[1]
  Conversion to trans-astaxanthin: observed

## CC1=C(/C=C/C(C)=C/C=C/C(C)=C/C=C/C=C(C)/C=C/C=C(C)/C=C/C2=C(C)C(=O)[C@@H](OC(=O)CCNC(=O)c3cccnc3)CC2(C)C)C(C)(C)C[C@H](OC(=O)CCNC(=O)c2cccnc2)C1=O [CCXXI, (all-E)-3S,3′S-astaxanthin-di-N-nicotinoyl-β-alaninate]
[1]
  Conversion to trans-astaxanthin: observed

## CC1=C(/C=C/C(C)=C/C=C/C(C)=C/C=C/C=C(C)/C=C/C=C(C)/C=C/C2=C(C)C(=O)[C@@H](OC(=O)[C@H](NC(=O)c3cccnc3)C(C)C)CC2(C)C)C(C)(C)C[C@H](OC(=O)[C@@H](NC(=O)c2cccnc2)C(C)C)C1=O [CCXXVI]
Caco-2
  Conversion to astaxanthin monoester: only a small amount
  Stability over the same time frame: stable

## CC1=C(/C=C/C(C)=C/C=C/C(C)=C/C=C/C=C(C)/C=C/C=C(C)/C=C/C2=C(C)C(=O)[C@@H](OC(=O)CNC(=O)c3cccnc3)CC2(C)C)C(C)(C)C[C@H](OC(=O)CNC(=O)c2cccnc2)C1=O [CCXX, (all-E)-3S,3′S-Astaxanthin-di-N-nicotinoglycinate]
[1]
  Conversion efficiency to trans-astaxanthin (comparison between compounds): higher conversion efficiency to trans-astaxanthin than CCXXI and CCXXII
  Conversion to trans-astaxanthin: observed
